Measured values reported in patent US20240317708A1, “INHIBITORS OF TRANSGLUTAMINASES” (ZEDIRA GMBH, priority 2021, published 2024).

What was measured:
[1] = target: T1, recombinant human transglutaminase 2 (Homo sapiens, UniProt P21980); experiment: Transglutaminase assay (dansylcadaverine incorporation into dimethylcasein, DCC-assay); type: biochemical; settings: for IC50: recombinant human TG2 10 nM, dansylcadaverine/dimethylcasein, 37° C.
T1 construct: purchased Zedira T022
T1 sequence (P21980 1-687): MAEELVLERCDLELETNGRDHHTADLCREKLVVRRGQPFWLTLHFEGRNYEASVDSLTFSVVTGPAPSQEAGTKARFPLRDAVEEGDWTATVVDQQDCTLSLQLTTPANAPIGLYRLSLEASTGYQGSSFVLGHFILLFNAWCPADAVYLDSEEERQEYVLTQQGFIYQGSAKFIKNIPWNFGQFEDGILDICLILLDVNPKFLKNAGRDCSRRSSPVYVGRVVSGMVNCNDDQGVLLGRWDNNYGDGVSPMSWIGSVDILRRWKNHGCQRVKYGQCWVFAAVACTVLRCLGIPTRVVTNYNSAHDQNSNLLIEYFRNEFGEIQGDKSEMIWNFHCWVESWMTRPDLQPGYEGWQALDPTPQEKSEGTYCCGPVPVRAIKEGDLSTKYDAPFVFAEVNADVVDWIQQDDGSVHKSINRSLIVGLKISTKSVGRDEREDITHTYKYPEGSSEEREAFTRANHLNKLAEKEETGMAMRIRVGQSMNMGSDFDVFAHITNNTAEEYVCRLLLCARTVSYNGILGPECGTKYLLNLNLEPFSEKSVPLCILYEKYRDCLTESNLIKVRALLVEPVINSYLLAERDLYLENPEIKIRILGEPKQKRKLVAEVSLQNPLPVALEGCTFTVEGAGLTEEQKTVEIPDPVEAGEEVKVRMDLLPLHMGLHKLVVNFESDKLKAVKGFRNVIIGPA
In short: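 IC50 derived from fluorescence slope between 20 and 30 min (λex 330 nm, λem 500 nm, 37 °C), expressed relative to a 2% DMSO control. Reaction: 10 nM recombinant human TG2, 4 μM dimethylcasein, 16.7 μM dansylcadaverine, 10 mM CaCl2 and glutathione, pH 8.0.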

[2] = Log D shake flask method (octanol / PBS pH 7.4, HPLC); type: physicochemical; settings: octanol/phosphate-buffered saline (PBS); octanol / PBS pH 7.4, shake flask
Description: In order to classify the inventive compounds according to their lipophilicity, Log D values (distribution coefficient) were determined by means of the well-established shake flask method, measuring the partition of a compound between an octanol and phosphate-buffered saline (PBS, pH 7.4) by HPLC.

[3] = Caco-2 permeability assay (CacoReady kit); type: in vitro ADME; settings: human
In short: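 Caco-2 monolayer barrier, commercial ready-to-use kit, manufacturer protocol. Read-out: Papp.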

times less potent in comparison to compound III-83 ([1]; IC50 ratio vs III-83, Table 1) | IC50 [1] [nM] | logD [2] | Papp [3] [×10⁻⁶ cm/s] | SMILES
more than 25 times | 250 to 1500 | 1 to 3 | < 1 | COC(=O)/C=C/CC[C@H](NC(=O)c1cccnc1)C(=O)Nc1cccn(CC(=O)NCCc2ccccc2)c1=O [Ref. 5, reference compound]
 | < 25 | 3 to 5 | 1 to 10 | COC(=O)/C=C/CC[C@H](NC(=O)c1cc(Br)c(Br)s1)C(=O)Nc1cccn(CC(=O)NC2C3CC4CC(C3)CC2C4)c1=O (stereo partly drawn) [III-19, (S,E)-methyl 6-(4,5-dibromothiophene-2-carboxamido)-7-(1-(2-(2-adamantylamino)-2-oxoethyl)-2-oxo-1,2-dihydropyridin-3-ylamino)-7-oxohept-2-enoate]
 | 250 to 1500 | < 1 | < 1 | CCN(CC)C(=O)/C=C/CC[C@H](NC(=O)[C@@H]1CN2CCN1CC2)C(=O)Nc1cccn(CC(=O)NC23CC(C2)C3)c1=O [III-139, (S,E)-N7-(1-(2-(bicyclo[1.1.1]pentan-1-ylamino)-2-oxoethyl)-2-oxo-1,2-dihydropyridin-3-yl)-6-((S)-1,4-diazabicyclo[2.2.2]octane-2-carboxamido)-N1,N1-diethylhept-2-enediamide]
 | 250 to 1500 | 1 to 3 | < 1 | COC(=O)/C=C/CC[C@H](NC(=O)C1CCc2ccccc2C1)C(=O)Nc1cccn(CC(=O)NC2C3CC4CC2CC(C(=O)N(C)C)(C4)C3)c1=O (stereo partly drawn) [III-137, (6S,E)-methyl 7-(1-(2-(4-aminoadamantane-N,N-dimethyl-1-carboxamide)-2-oxoethyl)-2-oxo-1,2-dihydropyridin-3-ylamino)-7-oxo-6-(1,2,3,4-tetrahydronaphthalene-2-carboxamido)hept-2-enoate]
 | < 25 | 3 to 5 | 1 to 10 | COC(=O)/C=C/CC[C@H](NC(=O)c1oc2ccccc2c1C)C(=O)Nc1cccn(CC(=O)NC23CC4(C)CC(C)(CC(C)(C4)C2)C3)c1=O [III-92, (S,E)-methyl 7-(1-(2-(3,5,7-trimethyl-1-adamantylamino)-2-oxoethyl)-2-oxo-1,2-dihydropyridin-3-ylamino)-6-(3-methylbenzofuran-2-carboxamido)-7-oxohept-2-enoate]
 | 25 to 250 | 1 to 3 | < 1 | COC(=O)/C=C/CC[C@H](NC(=O)c1cnccn1)C(=O)Nc1cccn(CC(=O)NC2C3CC4CC(C3)CC2C4)c1=O (stereo partly drawn) [III-24, (S,E)-methyl 7-(1-(2-(2-adamantylamino)-2-oxoethyl)-2-oxo-1,2-dihydropyridin-3-ylamino)-7-oxo-6-(pyrazine-2-carboxamido)hept-2-enoate]

Continued, compound first:

SMILES | times less potent in comparison to compound III-83 ([1]; IC50 ratio vs III-83, Table 1) | IC50 [1] [nM] | logD [2] | Papp [3] [×10⁻⁶ cm/s]
COC(=O)/C=C/CC[C@H](NC(=O)c1c[nH]c(C(N)=O)c1)C(=O)Nc1cccn(CC(=O)NC23CC(C2)C3)c1=O [III-163, (S,E)-methyl 7-(1-(2-(bicyclo[1.1.1]pentan-1-ylamino)-2-oxoethyl)-2-oxo-1,2-dihydropyridin-3-ylamino)-6-(5-carbamoyl-1H-pyrrole-3-carboxamido)-7-oxohept-2-enoate] |  | 250 to 1500 | < 1 | < 1
COC(=O)/C=C/CC[C@H](NC(=O)c1cc(Cl)sc1Cl)C(=O)Nc1cccn(CC(=O)N[C@H]2C[C@H]3CC[C@]2(C)C3(C)C)c1=O [III-128, (S,E)-methyl 6-(2,5-dichlorothiophene-3-carboxamido)-7-oxo-7-(2-oxo-1-(2-oxo-2-((1R,2S,4R)-1,7,7-trimethylbicyclo[2.2.1]heptan-2-ylamino)ethyl)-1,2-dihydropyridin-3-ylamino)hept-2-enoate] |  | < 25 | 3 to 5 | 1 to 10
COC(=O)/C=C/CC[C@H](NC(=O)c1csc(Br)c1)C(=O)Nc1cccn(CC(=O)NC2C3CC4CC(C3)CC2C4)c1=O (stereo partly drawn) [III-17, (S,E)-methyl 6-(5-bromothiophene-3-carboxamido)-7-(1-(2-(2-adamantylamino)-2-oxoethyl)-2-oxo-1,2-dihydropyridin-3-ylamino)-7-oxohept-2-enoate] |  | < 25 | 3 to 5 | < 1
CCN(CC)C(=O)/C=C/CC[C@H](NC(=O)c1coc(C(C)=O)n1)C(=O)Nc1cccn(CC(=O)NC23CC(C2)C3)c1=O [III-138, (S,E)-6-(2-acetyloxazole-4-carboxamido)-N7-(1-(2-(bicyclo[1.1.1]pentan-1-ylamino)-2-oxoethyl)-2-oxo-1,2-dihydropyridin-3-yl)-N1,N1-diethylhept-2-enediamide] |  | 250 to 1500 | < 1 | < 1
COC(=O)/C=C/CC[C@H](NC(=O)c1cnn(C)c1)C(=O)Nc1cccn(CC(=O)NC2C3CC4CC(C3)CC2C4)c1=O (stereo partly drawn) [III-130, (S,E)-methyl 7-(1-(2-(2-adamantylamino)-2-oxoethyl)-2-oxo-1,2-dihydropyridin-3-ylamino)-6-(1-methyl-1H-pyrazole-4-carboxamido)-7-oxohept-2-enoate] |  | 25 to 250 | 1 to 3 | < 1
COC(=O)/C=C/CC[C@H](NC(=O)c1ccnn1C)C(=O)Nc1cccn(CC(=O)NC23CC4(C)CC(C)(CC(C)(C4)C2)C3)c1=O [III-109, (S,E)-methyl 7-(1-(2-(3,5,7-trimethyl-1-adamantylamino)-2-oxoethyl)-2-oxo-1,2-dihydropyridin-3-ylamino)-6-(1-methyl-1H-pyrazole-5-carboxamido)-7-oxohept-2-enoate] |  | < 25 | 3 to 5 | < 1
CCOC(=O)/C=C/CC[C@H](NC(=O)c1cncn1C)C(=O)Nc1cccn(CC(=O)NC2C3CC4CC(C3)CC2C4)c1=O (stereo partly drawn) [III-99, (S,E)-ethyl 7-(1-(2-(2-adamantylamino)-2-oxoethyl)-2-oxo-1,2-dihydropyridin-3-ylamino)-6-(1-methyl-1H-imidazole-5-carboxamido)-7-oxohept-2-enoate] |  | 25 to 250 | 3 to 5 | < 1
COC(=O)/C=C/CC[C@H](NC(=O)c1nn[nH]n1)C(=O)Nc1cccn(CC(=O)NC2C3CC4CC(C3)CC2C4)c1=O (stereo partly drawn) [III-23, (S,E)-methyl 7-(1-(2-(2-adamantylamino)-2-oxoethyl)-2-oxo-1,2-dihydropyridin-3-ylamino)-7-oxo-6-(2H-tetrazole-5-carboxamido)hept-2-enoate] |  | 25 to 250 | 1 to 3 | 1 to 10
COC(=O)/C=C/CC[C@H](NC(=O)c1cnnn1C)C(=O)Nc1cccn(CC(=O)N[C@H]2C[C@H]3CC[C@]2(C)C3(C)C)c1=O [III-121, (S,E)-methyl 6-(1-methyl-1H-1,2,3-triazole-5-carboxamido)-7-oxo-7-(2-oxo-1-(2-oxo-2-((1R,2S,4R)-1,7,7-trimethylbicyclo[2.2.1]heptan-2-ylamino)ethyl)-1,2-dihydropyridin-3-ylamino)hept-2-enoate] |  | < 25 | 1 to 3 | < 1
COC(=O)/C=C/CC[C@H](NC(=O)c1cnnn1C)C(=O)Nc1cccn(CC(=O)NC23CC4(C)CC(C)(CC(C)(C4)C2)C3)c1=O [III-93, (S,E)-methyl 7-(1-(2-(3,5,7-trimethyl-1-adamantylamino)-2-oxoethyl)-2-oxo-1,2-dihydropyridin-3-ylamino)-6-(1-methyl-1H-1,2,3-triazole-5-carboxamido)-7-oxohept-2-enoate] |  | < 25 | 1 to 3 | 1 to 10
COC(=O)/C=C/CC[C@H](NC(=O)c1cc(Cl)sc1Cl)C(=O)Nc1cccn(CC(=O)NC23CC4CC(C)(CC(C)(C4)C2)C3)c1=O [III-124, (S,E)-methyl 6-(2,5-dichlorothiophene-3-carboxamido)-7-(1-(2-(3,5-dimethyladamantane-1-amino)-2-oxoethyl)-2-oxo-1,2-dihydropyridin-3-ylamino)-7-oxohept-2-enoate] |  | < 25 | 3 to 5 | 1 to 10
COC(=O)/C=C/CC[C@H](NC(=O)c1oc2ccccc2c1C)C(=O)Nc1cccn(CC(=O)NCC23CC4CC(CC(C4)C2)C3)c1=O [III-56, (S,E)-methyl 7-(1-(2-(1-adamantylmethylamino)-2-oxoethyl)-2-oxo-1,2-dihydropyridin-3-ylamino)-6-(3-methylbenzofuran-2-carboxamido)-7-oxohept-2-enoate] |  | 25 to 250 | 3 to 5 | 1 to 10
COC(=O)/C=C/CC[C@H](NC(=O)c1cncn1C)C(=O)Nc1cccn(CC23CC4CC(CC(C4)C2)C3)c1=O [III-78, (S,E)-methyl 7-(1-(1-adamantylmethyl)-2-oxo-1,2-dihydropyridin-3-ylamino)-6-(1-methyl-1H-imidazole-5-carboxamido)-7-oxohept-2-enoate] |  | 250 to 1500 | 3 to 5 | < 1
